# Experiments:
# [1] = tested on: model oligoribonucleotide (ORN) with 27 bases; experiment: Functionalisation of a model ORN with 27 bases: functionalisation rate and regiospecificity by HPLC/LC-MS after nuclease P1/alkaline phosphatase hydrolysis; type: biochemical; settings: compound 30 mM, 1 h at 65° C., 250 mM TEAAc pH 7, 25% DMSO; for Fr (corrected functionalisation rate): ORN 8 nmol
# From the text: For this purpose, a fixed quantity of ORN is reacted with an isatoic anhydride derivative conjugated to a molecule of interest (Cy3 IA Me (13)), under various temperature conditions, duration conditions, reaction medium conditions, etc. HPLC monitoring of the reaction at 260 nm makes it possible to detect the disappearance of the peak corresponding to the initial ORN and the appearance of peaks corresponding to acylated ORN. These products have a greater retention time and have an absorption spectrum corresponding to both that of ORN and that of the fluorescent label.
# However, for greater precision on the functionalisation site and to precisely evaluate the functionalisation rate (Fr), the ORN population (labelled and unlabelled) is separated from the excess label by precipitation with acetone/lithium perchlorate or by gel permeation (NAP 5™, GE Health Care. Then the ORNs thus obtained are submitted to hydrolysis with the nuclease P1 (Aldrich, Saint Louis, USA) and with the alkaline phosphatase (Aldrich, Saint Louis, USA), in order to hydrolyse the phosphate diester bonds of ORN.
# The ORN functionalisation rate (Fr) is evaluated by measuring: • the area corresponding to the terminal mononucleoside adducts (functionalised at 2′ and at 3′) and the area corresponding to the acylated dinucleosides (functionalised internally on 2′OH) • compared to the area of the peaks corresponding to the four ribonucleosides.
# The internal/external regiospecificity of the acylation is evaluated by measuring the relative proportion of the areas corresponding to the: • end mono-nucleotides acylated at 2′ and at 3′ • and di-nucleotides acylated internally on 2′OH • which are easily detectable by HPLC.
# The mixture is incubated for 60 minutes at 65° C. in an oven on a rack which is temperature-balanced in advance. An HPLC injection (conditions 3) makes it possible to monitor a formation of a certain quantity of acylated ORN as described in FIG. 6. To eliminate the salts and the excess label, the mixture is then purified on Sephadex NAP 5 gel (GE Health Care, Uppsala, Sweden)) and/or triple precipitation in 1.2 mL of a 180 mM Acetone/LiClO4 75/25 mixture. To finish, the pellet is dried with acetone and is evaporated with the centrifugal evaporator (RCT 60, Jouan, St Herblain, France). The residue is then taken up in 33 μL of a H2O/DMSO 85/15 solution and an HPLC injection (conditions 3) is performed in order to verify the proper elimination of the label. There is added to the mixture 2 μL of nuclease P1 (ref.: N8630 Sigma-Aldrich, St Louis, USA) in 1 U/μl solution in its buffer: 20 mM sodium acetate pH 5.5; 1 mM ZnCl2; 50 mM NaCl and 1 μL of 7 u/μl alkaline phosphatase in water (Ref. P7923-2KU Sigma-Aldrich, St Louis, USA). The medium is left at ambient temperature for 4 to 6 hours. It is then injected into HPLC (conditions 3) in order to verify the total hydrolysis of the ORN and in order to analyse the nature of the fragments obtained in accordance with what was described above and as described in FIG. 6.
# The functionalisation rate is evaluated with UV at 260 nm by integration of the clusters corresponding to the acylated dinucleotides and to the acylated nucleosides) relative to the clusters corresponding to the four ribonucleosides. The ratio of the population of acylated dinucleotides to the population of acylated nucleosides is evaluated in the same way in order to evaluate the percentage of functionalisation on the 3′ terminal end.
# The functionalisation rate values, presented within the framework of this invention, take into account the correction factor which must be applied according to the molar extinction coefficient at 260 nm of each of the nucleosides and according to whether they are nucleosides or dinucleotides. […]
# ODN with 53 bases = experiment: RNA vs DNA chemoselectivity: functionalisation of an ODN with 53 bases; type: biochemical; settings: compound 30 mM, DMSO/TEAAc buffer 25/75 (250 mM pH 7), 1 h at 65° C.
# Experimental: After precipitation with acetone and hydrolysis with nuclease P1 and alkaline phosphatase, the hydrolysed fragments are analysed by LC-MS, as described in example 3. An example of the chromatograms monitoring the reaction of ODN or ORN with compound 13 is shown in FIG. 9, in which graphs A, B and C respectively represent ORN, ORN functionalised with compound 13 and precipitated, and ORN functionalised with 13, precipitated and hydrolysed. Graphs D, E and F represent the same thing, but with ODN.
# in vitro RNA transcripts = experiment: Detection on Affymetrix DNA chip of biotinylated in vitro RNA transcripts; set-up: species or system human; settings: 30 mM compound, 60 mins at 65° C.; background in the order of 30 RFU
# Experimental: The in vitro transcripts are generated by in vitro transcription of the total RNA extracted from blood samples with the aid of the MessageAmp II kit (Reference AM 1751, AMBION, Austin, Tex.). Briefly, after extraction of the total RNA from the blood cells, a first reverse transcription step by the enzyme […] is performed in order to generate the DNA strand complementary to the mRNA (cDNA). The RNA strand is then digested by the RNase H before forming the double strand of cDNA by means of a DNA polymerase. Finally, the antisense RNA (in vitro transcripts) is obtained from the cDNA using the transcriptase T7.
# 17.6 μL of previously obtained solution of in vitro RNA transcripts (568 ng/μl), 9.4 μL of ultrapure water and 3 μL of 100 mM Zn(OAc)2 pH 6.5 is mixed. This solution is then incubated for 15 mins at 70° C., and then placed immediately into ice.
# 30 μL of this solution is sampled, to which there is added 30 μL of a potassium phosphate solution (pH 7, 1M), 30 μL of ultrapure water and 30 μl of the compound SBiot IA Me (9) in a 120 mM solution in DMSO. […]
# The excess reagent is then removed in the same way as in example 7 by precipitation with isopropanol. As well as depositing on an Affymetrix chip GeneChip Human Genome U133 Plus 2.0 Array, ref 900470, Affymetrix, St Clara, USA), the detection and measurement of the fluorescence.
# physchem = settings: water
solubility (Solubility in water) [mM],Fr (corrected functionalisation rate) [1] [%],External/internal regiospecificity (uncorrected ratio of areas acylated mononucleosides / acylated dinucleotides) [1],SMILES,corrected functionalisation rate of the ODN (ODN with 53 bases) [%],fluorescence intensities compared with background noise of unfunctionalised target IVTs (in vitro RNA transcripts),solubility (physchem) [mM]
1,1.2,,"O=C(CCCCC1SCC2NC(=O)NC21)Nc1ccc2[nH]c(=O)oc(=O)c2c1 (stereo not shown) [5Biot IA 5, 5-biotin-isatoic anhydride]",,,
19,3.3,62/38,"O=C(CCCCC1SCC2NC(=O)NC21)NCCOCCOCCOCCOCCC(=O)Nc1ccc2[nH]c(=O)oc(=O)c2c1 (stereo not shown) [5Biot PEG4 IA 6, 5-biotin-hexyl ethylene glycol-isatoic anhydride]",,,
50,4,60/40,"Cn1c(=O)oc(=O)c2cc(NC(=O)CCOCCOCCOCCOCCNC(=O)CCCCC3SCC4NC(=O)NC43)ccc21 (stereo not shown) [5Biot PEG4 IA Me 11, 1-methyl-5-biotin-hexyl ethylene glycol-isatoic anhydride]",,,
,1.2,50/50,"CC(=O)Nc1ccc2c(c1)c(=O)oc(=O)n2CC(=O)NCCOCCOCCNC(=O)CCCCC1SCC2NC(=O)NC21 (stereo not shown) [N(Biot PEG2) acetamido IA 19, 1-biotin-diethyleneglycol-5-acetamido-isatoic anhydride]",,,
,3.4,56/44,"O=C(CCCCC1SCC2NC(=O)NC21)NCCOCCOCCNC(=O)Cn1c(=O)oc(=O)c2ccccc21 (stereo not shown) [N(Biot PEG2)IA 18, 1-biotin-ethylene glycol-isatoic anhydride]",,,
,0.7,49/51,"O=C(CCCCCn1c(=O)oc(=O)c2ccccc21)NCCCOCCOCCOCCCNC(=O)CCCCC1SCC2NC(=O)NC21 (stereo not shown) [N(Biot PEG4) IA 21, N-(N-(biotin-dPEG3-propyl)-6-bromohexanamide) isatoic anhydride]",,,

# Further lines, the compound ahead of its results:
SMILES,solubility (Solubility in water) [mM],Fr (corrected functionalisation rate) [1] [%],External/internal regiospecificity (uncorrected ratio of areas acylated mononucleosides / acylated dinucleotides) [1],corrected functionalisation rate of the ODN (ODN with 53 bases) [%],fluorescence intensities compared with background noise of unfunctionalised target IVTs (in vitro RNA transcripts),solubility (physchem) [mM]
"Cn1c(=O)oc(=O)c2cc(NC(=O)CCCCC3SCC4NC(=O)NC43)ccc21 (stereo not shown) [5Biot IA Me 9, 1-Methyl-5 biotin-isatoic anhydride]",,2.6,55/45,0.1,very substantially greater than the background noise,
"O=C(CCCCC1SCC2NC(=O)NC21)Nc1ccc2c(c1)c(=O)oc(=O)n2CCCS(=O)(=O)O (stereo not shown) [5Biot IA SO3^− 10, 1-propylsulfone-5-biotin-isatoic anhydride]",,1.6,60/40,,,
O=C(CCCCC1SCC2NC(=O)NC21)NCCOCCOCCOCCOCCC(=O)NCCSSCCC(=O)Nc1ccc2[nH]c(=O)oc(=O)c2c1 (stereo not shown) [5Biot PEG4 SS IA 23],,3.1,52/48,,,
"CCN1/C(=C\C=C\C2=[N+](CCCCCC(=O)Nc3ccc4[nH]c(=O)oc(=O)c4c3)c3ccc(S(=O)(=O)[O-])cc3C2(C)C)C(C)(C)c2cc(S(=O)(=O)O)ccc21 [Cy3 IA 7, 5-Cy3 isatoic anhydride]",,2.6,61/39,,,> 100
